In USRE48461E1, “Modulation of androgen receptor expression” (Ionis Pharmaceuticals, Inc., priority 2012, dated 2021):

Columns and labels:
Assay type in all cases: cell-based, human
PSA mRNA = assay: PSA expression in VCaP cells; conditions: 48 hrs
Experimental: Cells were plated at 10,000 cells per well. […] After an incubation period of 48 hrs, RNA levels of full length AR, the V7 variant, PSA and TMPRSS2 were measured.
(§1) After an incubation period of 48 hrs, RNA levels of full length AR, the V7 variant, PSA and TMPRSS2 were measured. The data is presented in Tables 108 expressed as percent expression of gene levels compared to the untreated control.
Cells were plated at 15,000 cells per well and cultured in CSS media for 16 hours. […] After 4 hrs, 1 nM DHT was added. […] After an incubation period of 48 hrs, RNA levels of AR, PSA and TMPRSS2 were measured.

AR V7 variant mRNA [1] = assay: AR V7 variant RNA in 22RV1 cells; conditions: 48 hrs
AR mRNA [2] = assay: AR RNA expression in C4-2B cells (complete, CSS+DHT medium; Example 30); conditions: 48 hrs
Experimental: Cells were plated at 1,000 cells per well. […] ISIS 549148 was included as a negative control. […] After an incubation period of 48 hrs, RNA levels of AR, PSA and TMPRSS2 were measured.
Cells were plated at 2,000 cells per well and cultured in CSS media with 1 nM DHT. […] ISIS 549148 was included as a negative control. […] After an incubation period of 48 hrs, RNA levels of AR, PSA and TMPRSS2 were measured. In the absence of DHT, AR expression in C4-2 cells was 188%, PSA expression was 43% and TMPRSS2 expression was 27% compared to the untreated control.

AR V7 variant mRNA [3] = assay: AR V7 variant RNA in VCaP cells; conditions: 48 hrs
Experimental: Cells were plated at 10,000 cells per well. […] ISIS 549148 was included as a negative control. After an incubation period of 48 hrs, RNA levels of full length AR, the V7 variant, PSA and TMPRSS2 were measured.
as §1, with “A separate set of cells was treated with MDV-3100 at 0.04 μM, 0.2 μM, 1.0 μM, or 5.0 μM. After” for “After”
Cells were plated at 15,000 cells per well and cultured in CSS media for 16 hours. […] ISIS 549148 was included as a negative control. After 4 hrs, 1 nM DHT was added. […] After an incubation period of 48 hrs, RNA levels of AR, PSA and TMPRSS2 were measured. […]

AR mRNA [4] = assay: Time-course AR mRNA expression in C4-2B cells (8, 24, 48 hours); conditions: for Percent expression of AR compared to the control group in 8 hours / Percent expression of AR compared to the control group in 24 hours / Percent expression of AR compared to the control group in 48 hours: C4-2B cells
Experimental: C4-2B cells were plated at 1,000 cells per well in complete medium. […] After a treatment period of 8 hours, 24 hours, and 48 hours, AR expression was measured with primer probe set hAR-LTS00943.

TMPRSS2 mRNA = assay: TMPRSS2 expression in C4-2 cells; conditions: 48 hrs; for Percent inhibition of TMPRSS2 expression: C4-2 cells, CSS + DHT medium
Experimental: Cells were plated at 1,000 cells per well. […] After an incubation period of 48 hrs, RNA levels of AR, PSA and TMPRSS2 were measured.
Cells were plated at 2,000 cells per well and cultured in CSS media with 1 nM DHT. […] After an incubation period of 48 hrs, RNA levels of AR, PSA and TMPRSS2 were measured.

VCaP cells = assay: VCaP apoptosis (Caspase-Glo 3/7); conditions: complete medium, 72 hours
Experimental: After a treatment period of 72 hours in complete medium, apoptosis of the cancer cells was measured with Caspase-Glo 3/7 assay (Promega). Results are presented in Tables 117 and 118 as percent apoptosis of the cells, relative to non-treated cells.

KLK2 mRNA = KLK2 mRNA (AR target gene) in C4-2B MR cells; conditions: C4-2B MR cells, 0.04-5.00 μM
total AR mRNA = assay: Total (full-length) AR mRNA in C4-2B MR cells, free uptake; conditions: C4-2B MR cells, 0.04-5.00 μM free uptake, 24 hrs
Procedure, shortened: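 Cells grown in RPMI1640 with 10% FBS received antisense oligonucleotides at 0.04, 0.20, 1.00 and 5.00 μM in the medium by free uptake, no transfection agent. After 24 hrs, total AR mRNA quantified by real-time qPCR with primer probe set RTS3559.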

Molecule: CNC(=O)c1ccc(N2C(=S)N(c3ccc(C#N)c(C(F)(F)F)c3)C(=O)C2(C)C)cc1F [MDV3100, 4-(3-(4-cyano-3-(trifluoromethyl)phenyl)-5,5-dimethyl-4-oxo-2-thioxoimidazolidin-1-yl)-2-fluoro-N-methylbenzamide, reference compound]
- Percent of gene expression, PSA (PSA mRNA; CSS + DHT medium, 0.04 μM): 90%
- Percent of gene expression, PSA (PSA mRNA; CSS + DHT medium, 0.2 μM): 72%
- Percent of gene expression, PSA (PSA mRNA; CSS + DHT medium, 1.0 μM): 57%
- Percent of gene expression, PSA (PSA mRNA; CSS + DHT medium, 5.0 μM): 30%
- Percent of gene expression, PSA (PSA mRNA; complete medium, 0.04 μM): 105%
- Percent of gene expression, PSA (PSA mRNA; complete medium, 0.2 μM): 76%
- Percent of gene expression, PSA (PSA mRNA; complete medium, 1.0 μM): 75%
- Percent of gene expression, PSA (PSA mRNA; complete medium, 5.0 μM): 61%
- Percent of gene expression, AR V7 variant (AR V7 variant mRNA [1]; CSS + DHT medium, 0.04 μM): 16%
- Percent of gene expression, AR V7 variant (AR V7 variant mRNA [1]; CSS + DHT medium, 0.2 μM): 17%
- Percent of gene expression, AR V7 variant (AR V7 variant mRNA [1]; CSS + DHT medium, 1.0 μM): 19%
- Percent of gene expression, AR V7 variant (AR V7 variant mRNA [1]; CSS + DHT medium, 5.0 μM): 12%
- Percent of gene expression, AR V7 variant (AR V7 variant mRNA [1]; complete medium, 0.04 μM): 106%
- Percent of gene expression, AR V7 variant (AR V7 variant mRNA [1]; complete medium, 0.2 μM): 98%
- Percent of gene expression, AR V7 variant (AR V7 variant mRNA [1]; complete medium, 1.0 μM): 87%
- Percent of gene expression, AR V7 variant (AR V7 variant mRNA [1]; complete medium, 5.0 μM): 77%
- Percent expression of AR (AR mRNA [2]; CSS + DHT medium, 0.04 μM): 112%
- Percent expression of AR (AR mRNA [2]; CSS + DHT medium, 0.2 μM): 144%
- Percent expression of AR (AR mRNA [2]; CSS + DHT medium, 1 μM): 165%
- Percent expression of AR (AR mRNA [2]; CSS + DHT medium, 5.0 μM): 173%
- AR expression (AR mRNA [2]; CSS+DHT medium): increased AR expression in the cells
- Percent expression of AR (AR mRNA [2]; complete medium, 0.04 μM): 108%
- Percent expression of AR (AR mRNA [2]; complete medium, 0.2 μM): 121%
- Percent expression of AR (AR mRNA [2]; complete medium, 1 μM): 157%
- Percent expression of AR (AR mRNA [2]; complete medium, 5.0 μM): 182%
- AR expression (AR mRNA [2]; complete medium): increased AR expression in the cells
- Percent of gene expression, AR V7 variant (AR V7 variant mRNA [3]; CSS + DHT medium, 0.04 μM): 82%
- Percent of gene expression, AR V7 variant (AR V7 variant mRNA [3]; CSS + DHT medium, 0.2 μM): 65%
- Percent of gene expression, AR V7 variant (AR V7 variant mRNA [3]; CSS + DHT medium, 1.0 μM): 101%
- Percent of gene expression, AR V7 variant (AR V7 variant mRNA [3]; CSS + DHT medium, 5.0 μM): 181%
- Percent of gene expression, AR V7 variant (AR V7 variant mRNA [3]; complete medium, 0.04 μM): 172%
- Percent of gene expression, AR V7 variant (AR V7 variant mRNA [3]; complete medium, 0.2 μM): 179%
- Percent of gene expression, AR V7 variant (AR V7 variant mRNA [3]; complete medium, 1.0 μM): 244%
- Percent of gene expression, AR V7 variant (AR V7 variant mRNA [3]; complete medium, 5.0 μM): 237%
- Percent expression of AR compared to the control group in 8 hours (AR mRNA [4]; 0.04 μM): 99%
- Percent expression of AR compared to the control group in 24 hours (AR mRNA [4]; 0.04 μM): 88%
- Percent expression of AR compared to the control group in 48 hours (AR mRNA [4]; 0.04 μM): 94%
- Percent expression of AR compared to the control group in 8 hours (AR mRNA [4]; 0.2 μM): 100%
- Percent expression of AR compared to the control group in 24 hours (AR mRNA [4]; 0.2 μM): 99%
- Percent expression of AR compared to the control group in 48 hours (AR mRNA [4]; 0.2 μM): 94%
- Percent expression of AR compared to the control group in 8 hours (AR mRNA [4]; 1 μM): 92%
- Percent expression of AR compared to the control group in 24 hours (AR mRNA [4]; 1 μM): 96%
- Percent expression of AR compared to the control group in 48 hours (AR mRNA [4]; 1 μM): 113%
- Percent expression of AR compared to the control group in 24 hours (AR mRNA [4]; 5.0 μM): 84%
- Percent expression of AR compared to the control group in 48 hours (AR mRNA [4]; 5.0 μM): 126%
- AR expression (AR mRNA [4]; C4-2B cells, 8, 24 and 48 hours): increased AR expression at the 48 hour time-point
- Percent inhibition of TMPRSS2 expression (TMPRSS2 mRNA; 0.04 μM): 9%
- Percent inhibition of TMPRSS2 expression (TMPRSS2 mRNA; 0.2 μM): 0%
- Percent inhibition of TMPRSS2 expression (TMPRSS2 mRNA; 1 μM): 44%
- Percent inhibition of TMPRSS2 expression (TMPRSS2 mRNA; 5.0 μM): 78%
- Percent inhibition of TMPRSS2 expression in C4-2 cells cultured in complete medium (TMPRSS2 mRNA; 0.04 μM): 10%
- Percent inhibition of TMPRSS2 expression in C4-2 cells cultured in complete medium (TMPRSS2 mRNA; 0.2 μM): 20%
- Percent inhibition of TMPRSS2 expression in C4-2 cells cultured in complete medium (TMPRSS2 mRNA; 1 μM): 44%
- Percent inhibition of TMPRSS2 expression in C4-2 cells cultured in complete medium (TMPRSS2 mRNA; 5.0 μM): 67%
- Apoptosis (% untreated control) in VCaP cells treated with MDV-3100 (VCaP cells; 5.0 nM): 528%
- Apoptosis (% untreated control) in VCaP cells treated with MDV-3100 (VCaP cells; 0.04 μM): 186%
- Apoptosis (% untreated control) in VCaP cells treated with MDV-3100 (VCaP cells; 0.2 μM): 210%
- Apoptosis (% untreated control) in VCaP cells treated with MDV-3100 (VCaP cells; 1.0 μM): 612%
- apoptosis of VCaP cells (VCaP cells): increased apoptosis of the cells in a dose dependent compared to the control

Molecule: GTTGATTTAATGGTTG (all phosphorothioate, sugars by position not given here; further chemistry not fully specified) [ISIS 549458]
- AR target gene KLK2 mRNA levels (KLK2 mRNA): reduced target gene levels in a dose dependent manner more extensively than treatment with ISIS 554221
- total AR transcript levels (total AR mRNA): reduced total AR transcript levels in a dose dependent manner more extensively than treatment with ISIS 554221
